Experimental data taken from patent US20030215523A1, “Medicinal compositions for concomitant use as anticancer agent” (priority 2000, published 2003).
Structures can show the parent of a compound that is named as a salt. Where two headings read alike, the source gives them in different places.

Columns and labels:
[1] = system: Human colon cancer strain Colo320D.M.; assay: Combined use of E7070 and 5-FU in human colon cancer Colo320D.M. xenograft model; settings: for Toxicity Dead/Treated: Colo320D.M. xenograft, nude mice, E7070 30 mg/kg/day QDx5, 5-FU 60 mg/kg/day Q4Dx3
Description: (§1) J Natl Cancer Inst. Jun. 5, 1996;88(11):747-53; (iii) Effects of growth hormone and testosterone on cortical bone formation and bone density in aged orchiectomized rats. Bone. 1999 May;24(5):491-7).

[2] = system: Human non-small cell lung cancer LU-99; settings: for Tx4 (days) mean ± S.D.: time in days for tumor size to attain 4 folds of initial tumor size: LU-99 s.c. in nude mice, E7070 25 mg/kg/day i.v. QDx5, CDDP 7.5 mg/kg/day i.v. single dose, + simultaneous (E7070 day 1-5, CDDP day 1), E7070 → CDDP (day 6), CDDP (day 1) → E7070 (day 2-6)
Description: as §1

[3] = system: Human colon cancer strain HCT15; settings: for Tx4 (days) mean ± S.D.: time in days for tumor size to attain 4 folds of initial tumor size: HCT15 s.c. in nude mice, E7070 30 mg/kg/day i.v. QDx5 (day 1-5), CPT-11 75 mg/kg/day i.v. Q4Dx3 (day 1, 5, 9); for Toxicity Dead/Treated: HCT15 xenograft, nude mice, E7070 30 mg/kg/day QDx5, CPT-11 75 mg/kg/day Q4Dx3
Description: as §1

[4] = system: Human colon cancer strain SW620; assay: Combined use of E7070 and CPT-11 in human colon cancer SW620 xenograft model; settings: for Tx4 (days) mean ± S.D.: time in days for tumor size to attain 4 folds of initial tumor size: SW620 s.c. in nude mice, E7070 25 mg/kg/day i.v. QDx5, CPT-11 62.5 mg/kg/day i.v. Q4Dx3, + simultaneous (E7070 day 1-5, CPT-11 day 1, 5, 9), E7070 → CPT-11 (day 6, 10, 14), CPT-11 → E7070 (day 10-14); for Toxicity mRBW (minimum relative body weight) mean: parentheses: day when RBW was minimal
Description: as §1
E7070 alone was intravenously administered once per day for5 days (first to fifth days), while CPT-11 alone was intravenously administered 3 times (once every 4 days, that is, on the first, fifth and ninth days).

[5] = system: Human colon cancer strain HCT15; assay: Combined use of E7070 and MMC in human colon cancer HCT15 xenograft model; settings: for Tx4 (days) mean ± S.D.: time in days for tumor size to attain 4 folds of initial tumor size: HCT15 s.c. in nude mice, E7070 25 mg/kg/day i.v. QDx5 (day 1-5; combination row prints 30 mg/kg/day), MMC 4.19 mg/kg/day i.v. single dose (day 1); for Toxicity Dead/Treated: HCT15 xenograft, nude mice, E7070 QDx5, MMC 4.19 mg/kg/day QDx1
Description: as §1

Human breast cancer HBC4 = assay: Combined use of E7070 and capecitabine in human breast cancer HBC4 xenograft model; format: in vivo
Description: as §1

[6] = Further anticancer agents examined for synergistic effect in combined use with E7070; settings: used in the compositions of the invention (with E7070); model and data not given
[7] = SW620 xenograft, nude mice, E7070 25 mg/kg/day QDx5, CPT-11 62.5 mg/kg/day Q4Dx3
[8] = LU-99 xenograft, nude mice, E7070 25 mg/kg/day QDx5, CDDP 7.5 mg/kg/day QDx1
[9] = HBC4 xenograft, nude mice, E7070 30.625 mg/kg/day, capecitabine 1.3125 mmol/kg/day

O=c1[nH]cc(F)c(=O)[nH]1 [5-FU, 5-fluoro-2,4-(1H,3H)-pyrimidinedione, reference compound]
Toxicity Dead/Treated [1]: 0/6

N.N.[Cl][Pt][Cl] [CDDP, cis-diamminedichloroplatinum, reference compound]
Tx4 (days) mean ± S.D.: time in days for tumor size to attain 4 folds of initial tumor size [2]: 10.7 ± 0.5 days

CCc1c2c(nc3ccc(OC(=O)N4CCC(N5CCCCC5)CC4)cc13)-c1cc3c(c(=O)n1C2)COC(=O)[C@]3(O)CC [CPT-11, [1,4′-Bipiperidine]-1′-carboxylic acid (S)-4,11-diethyl-3,4,12,14-tetrahydro-4-hydroxy-3,14-dioxo-1H-pyrano-[3′,4′:6,7]-indolizino[1,2-b]quinolin-9-yl ester Hydrochloride trihydrate, reference compound]
Tx4 (days) mean ± S.D.: time in days for tumor size to attain 4 folds of initial tumor size [3]: 17.8 ± 1.0 days
Toxicity Dead/Treated [3]: 0/6
Tx4 (days) mean ± S.D.: time in days for tumor size to attain 4 folds of initial tumor size [4]: 48.7 ± 29.7 days
Toxicity Dead/Treated [4, 7]: 0/6
Toxicity mRBW (minimum relative body weight) mean [4, 7]: 0.99(8)

NS(=O)(=O)c1ccc(S(=O)(=O)Nc2cccc3c(Cl)c[nH]c23)cc1 [E7070, N-(3-chloro-1H-indol-7-yl)-4-sulfamoylbenzenesulfonamide]
Tx4 (days) mean ± S.D.: time in days for tumor size to attain 4 folds of initial tumor size [3]: 18.7 ± 2.0 days
Toxicity Dead/Treated [3]: 0/6
Tx4 (days) mean ± S.D.: time in days for tumor size to attain 4 folds of initial tumor size [2]: 18.2 ± 2.3 days
Toxicity Dead/Treated [2, 8]: 0/6
mRTV (minimum relative tumor volume) mean ± S.D. [2, 8]: 0.75 ± 0.16
Tx4 (days) mean ± S.D.: time in days for tumor size to attain 4 folds of initial tumor size [5]: 12.7 ± 2.2 days
Toxicity Dead/Treated [5]: 0/6
Tx4 (days) mean ± S.D.: time in days for tumor size to attain 4 folds of initial tumor size ([1]; Colo320D.M. s.c. in nude mice, E7070 30 mg/kg/day i.v. QDx5, 5-FU 60 mg/kg/day i.v. Q4Dx3, + simultaneous (E7070 day 1-5, 5-FU day 1, 5, 9), E7070 → 5-FU (day 6, 10, 14), 5-FU → E7070 (day 10-14)): 11.2 ± 1.9 days
Toxicity Dead/Treated [1]: 0/6
Tx4 (days) mean ± S.D.: time in days for tumor size to attain 4 folds of initial tumor size [4]: 30.2 ± 6.1 days
Toxicity Dead/Treated [4, 7]: 0/6
Toxicity mRBW (minimum relative body weight) mean [4, 7]: 0.98(8)
mRTV (minimum relative tumor volume) mean ± S.D. ([4]; SW620 xenograft, nude mice, E7070 25 mg/kg/day QDx5, CPT-11 62.5 mg/kg/day Q4Dx3, parentheses: day when RTV was minimal): 0.76 ± 0.42(12)
Tx4 (days): time in days for tumor size to attain 4 folds of initial size (Human breast cancer HBC4; HBC4 s.c. in nude mice, E7070 30.625 mg/kg/day (87.5% MTD) once per day for 5 days, capecitabine 1.3125 mmol/kg/day (87.5% MTD) once per day for 14 days, combination: E7070 day 1-5, capecitabine day 6-19): 50.0 ± 8.1 days
CR, complete response: incidence of tumor free mice (Human breast cancer HBC4; [9]): 0/6
PR, partial response: incidence of tumor regression (more than 50% of tumor regression) (Human breast cancer HBC4; [9]): 6/6
mRTV (minimum relative tumor volume) (Human breast cancer HBC4; [9]): 0.24 ± 0.07
T · C (Human breast cancer HBC4; HBC4 xenograft, Tx4 of treated versus control, E7070 30.625 mg/kg/day, capecitabine 1.3125 mmol/kg/day): 28.0 days

CO[C@@]12[C@H](COC(N)=O)C3=C(C(=O)C(C)=C(N)C3=O)N1C[C@@H]1N[C@@H]12 [MMC, [1aS-(1aα,8β,8aα,8bα)]-6-amino-8-[[(aminocarbonyl)oxy]methyl]1,1a,2,8,8a,8b-hexahydro-8a-methoxy-5-methylazirino[2′,3′:3,4]pyrrolo[1,2-a]indole-4,7-dione, reference compound]
Tx4 (days) mean ± S.D.: time in days for tumor size to attain 4 folds of initial tumor size [5]: 16.2 ± 3.4 days
Toxicity Dead/Treated [5]: 0/6

COc1cccc2c1C(=O)c1c(O)c3c(c(O)c1C2=O)C[C@@](O)(C(=O)CO)C[C@@H]3O[C@H]1C[C@H](N)[C@H](O)[C@H](C)O1 [doxorubicin, 10-[(3-amino-2,3,6-trideoxy-α-L-1yxo-hexopyranosyl)oxy]-7,8,9,10-tetrahydro-6,8,11-trihydroxy-8-(hydroxyacetyl)-1-methoxy-(8S-cis)-5,12-naphthacenedione]
Antitumor activity when examined for synergistic effect (in words) [6]: excellent antitumor activity

Nc1ccn([C@@H]2O[C@H](CO)[C@@H](O)C2(F)F)c(=O)n1 [gemcitabine hydrochloride, 2′-deoxy-2′,2′-difluoro-cytidine hydrochloride]
Antitumor activity when examined for synergistic effect (in words) [6]: excellent antitumor activity
